Experimental findings from ChEMBL document CHEMBL5584220, “Design, synthesis, and biological evaluation of aralkyl piperazine and piperidine derivatives targeting SSRI/5-HT1A/5-HT7” (Bioorg Med Chem, 2024) are described below.

Each structure is given as a SMILES string. A value given as a limit tells only on which side of the number the result lay.

Data set [1] concerns the target T1, 5-hydroxytryptamine receptor 1A (Homo sapiens, UniProt P08908).
T1 sequence (P08908 whole entry): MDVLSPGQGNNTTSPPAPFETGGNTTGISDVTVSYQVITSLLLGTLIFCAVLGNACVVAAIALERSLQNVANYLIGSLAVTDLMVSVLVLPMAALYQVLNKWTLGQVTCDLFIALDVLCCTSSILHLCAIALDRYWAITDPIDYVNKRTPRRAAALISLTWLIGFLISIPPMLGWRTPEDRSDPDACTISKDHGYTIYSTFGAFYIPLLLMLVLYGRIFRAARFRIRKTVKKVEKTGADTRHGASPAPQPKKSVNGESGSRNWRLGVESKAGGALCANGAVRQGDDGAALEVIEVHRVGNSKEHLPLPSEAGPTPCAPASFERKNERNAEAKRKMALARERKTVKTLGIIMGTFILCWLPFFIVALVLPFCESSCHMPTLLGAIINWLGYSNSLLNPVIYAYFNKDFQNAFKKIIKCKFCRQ

In data set [2] the target is 5-hydroxytryptamine receptor 7 (Homo sapiens, UniProt P34969).
Data set [3] addresses Voltage-gated inwardly rectifying potassium channel KCNH2 (Homo sapiens, UniProt Q12809).
The target of data set [4] is Sodium-dependent serotonin transporter (Homo sapiens, UniProt P31645). It counts as cell-based, HEK293.
Data set [5] is described as follows: in vitro. The note with it: human, liver microsomes.
Data set [6] is described as follows: in vitro. The note with it: mouse, liver microsomes. (Liver microsomes are a subcellular fraction often used to study metabolism.)
In the next data set the target is hERG (KCNH2) (Homo sapiens, UniProt Q12809). Briefly: in vitro. The note with it: HEK293 cells that express hERG. On the technique in general: hERG is a cardiac potassium channel; its block is linked to QT prolongation.
Sequence of hERG (KCNH2) (Q12809 whole entry): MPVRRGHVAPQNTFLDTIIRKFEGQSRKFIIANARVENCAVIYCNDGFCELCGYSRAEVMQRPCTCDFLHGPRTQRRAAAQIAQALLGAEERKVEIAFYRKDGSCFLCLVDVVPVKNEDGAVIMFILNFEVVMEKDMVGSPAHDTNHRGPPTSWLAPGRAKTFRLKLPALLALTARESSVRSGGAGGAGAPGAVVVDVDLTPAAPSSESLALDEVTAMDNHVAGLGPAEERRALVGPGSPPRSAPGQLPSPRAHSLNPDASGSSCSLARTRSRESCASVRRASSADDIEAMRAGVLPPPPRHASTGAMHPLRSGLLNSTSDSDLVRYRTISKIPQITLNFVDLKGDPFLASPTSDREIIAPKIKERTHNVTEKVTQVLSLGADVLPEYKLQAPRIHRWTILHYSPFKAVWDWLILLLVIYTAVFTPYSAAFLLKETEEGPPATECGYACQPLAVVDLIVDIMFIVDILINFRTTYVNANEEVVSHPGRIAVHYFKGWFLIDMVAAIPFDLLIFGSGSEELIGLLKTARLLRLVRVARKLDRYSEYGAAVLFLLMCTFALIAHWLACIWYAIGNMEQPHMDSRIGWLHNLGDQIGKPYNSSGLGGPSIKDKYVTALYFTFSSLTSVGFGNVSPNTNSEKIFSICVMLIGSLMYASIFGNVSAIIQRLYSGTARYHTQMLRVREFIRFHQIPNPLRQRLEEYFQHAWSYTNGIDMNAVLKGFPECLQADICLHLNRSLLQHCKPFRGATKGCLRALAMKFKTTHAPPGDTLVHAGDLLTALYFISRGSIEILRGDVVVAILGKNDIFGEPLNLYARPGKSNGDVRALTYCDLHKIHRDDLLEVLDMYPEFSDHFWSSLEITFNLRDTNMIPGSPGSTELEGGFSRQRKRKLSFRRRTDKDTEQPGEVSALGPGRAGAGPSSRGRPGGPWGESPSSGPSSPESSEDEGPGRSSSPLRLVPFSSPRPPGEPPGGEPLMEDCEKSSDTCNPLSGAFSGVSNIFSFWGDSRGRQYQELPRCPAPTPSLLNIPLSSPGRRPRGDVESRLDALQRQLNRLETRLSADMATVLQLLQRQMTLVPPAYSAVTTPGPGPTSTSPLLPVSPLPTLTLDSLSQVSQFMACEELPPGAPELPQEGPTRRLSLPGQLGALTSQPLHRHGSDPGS

Sequence of Sodium-dependent serotonin transporter (P31645 whole entry): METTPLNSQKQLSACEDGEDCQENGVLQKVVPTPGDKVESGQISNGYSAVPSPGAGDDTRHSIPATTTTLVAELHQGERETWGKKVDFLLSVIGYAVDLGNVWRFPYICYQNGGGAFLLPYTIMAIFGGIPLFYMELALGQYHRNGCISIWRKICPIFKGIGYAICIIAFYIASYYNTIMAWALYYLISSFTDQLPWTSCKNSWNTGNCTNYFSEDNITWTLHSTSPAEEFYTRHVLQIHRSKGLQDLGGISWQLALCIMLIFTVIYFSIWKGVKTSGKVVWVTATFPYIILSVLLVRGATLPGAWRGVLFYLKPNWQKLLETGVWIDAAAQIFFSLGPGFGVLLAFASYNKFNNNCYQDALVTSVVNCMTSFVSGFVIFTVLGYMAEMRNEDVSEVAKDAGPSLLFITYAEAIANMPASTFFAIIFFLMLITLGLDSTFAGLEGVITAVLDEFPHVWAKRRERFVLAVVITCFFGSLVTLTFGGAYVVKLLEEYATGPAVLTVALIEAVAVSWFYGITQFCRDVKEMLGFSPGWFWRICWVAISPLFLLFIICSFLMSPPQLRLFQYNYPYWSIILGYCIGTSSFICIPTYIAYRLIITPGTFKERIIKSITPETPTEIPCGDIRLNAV
Sequence of 5-hydroxytryptamine receptor 7 (P34969 whole entry): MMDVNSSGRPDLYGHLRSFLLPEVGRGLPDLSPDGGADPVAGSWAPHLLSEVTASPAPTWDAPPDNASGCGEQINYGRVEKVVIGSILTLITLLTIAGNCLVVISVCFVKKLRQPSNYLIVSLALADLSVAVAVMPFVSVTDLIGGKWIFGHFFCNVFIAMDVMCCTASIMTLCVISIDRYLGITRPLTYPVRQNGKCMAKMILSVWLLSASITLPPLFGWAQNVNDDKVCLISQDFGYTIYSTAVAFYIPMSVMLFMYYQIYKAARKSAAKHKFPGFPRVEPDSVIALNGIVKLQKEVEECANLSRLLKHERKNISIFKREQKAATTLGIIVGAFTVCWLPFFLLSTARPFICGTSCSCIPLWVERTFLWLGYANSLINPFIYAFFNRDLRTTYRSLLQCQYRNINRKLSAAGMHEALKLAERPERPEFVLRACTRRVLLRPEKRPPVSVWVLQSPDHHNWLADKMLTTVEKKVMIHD
Sequence of Voltage-gated inwardly rectifying potassium channel KCNH2 (Q12809 whole entry): as the sequence (Q12809 whole entry) above

Usually Ki stands for the equilibrium dissociation constant of an inhibitor or competing ligand from its target. The low end stands for tighter binding, the high end for weaker binding. On to `CSc1ccccc1N1CCN(CCCCCC(=O)NC2CCCc3ccccc32)CC1` (centres undefined), for which the inhibitory constant (Ki) turned out to be 0.22 nM in data set [1] and 52.7 nM in data set [2].

A word on the IC50: it is the concentration needed to halve the response being measured. Lower therefore signals inhibition by little substance. In the case of `COc1ccccc1N1CCN(CCCc2c[nH]c3ccc(F)cc23)CC1`, the IC50 turned out to be 310 nM in data set [3] and 0.85 nM in data set [4].

One may read the microsomal CLint as a measure of how fast metabolising enzymes remove a compound, apart from limits set by blood flow. A higher microsomal CLint goes with faster metabolism. By inhibition is commonly meant how much of the control response was suppressed. Low values mean a response near the control, high ones a response far below the control. With `CCSc1ccccc1N1CCN(CCCc2c[nH]c3ccc(F)cc23)CC1`, the figures for the microsomal CLint at 1 µM in the data set “in vitro [5]” and in the data set “in vitro [6]” were 39.5 µL/min/mg and 47.6 µL/min/mg, respectively. Further, 1 µM produced 90.1% inhibition at hERG (KCNH2).

`CSc1ccccc1N1CCN(CCCc2c[nH]c3ccc(F)cc23)CC1`: the figures for the IC50 in data set [3] and in data set [4] were 390 nM and 1.9 nM, respectively.

`COc1ccc2c(c1)[C@]13CCCC[C@@H]1[C@H](C2)N(C)CC3` [DEXTROMETHORPHAN] registered a microsomal CLint at 1 µM in “in vitro [5]” of 28 µL/min/mg.

With `NC(=O)c1ccc2[nH]cc(CCCN3CCC(c4ccc(F)cc4-c4ccccc4)CC3)c2c1`, the Ki in data set [1] was < 0.04 nM. In addition, in data set [4], the IC50 is > 10000 nM.

For `Fc1ccc(C2=CCN(CCCc3c[nH]c4ccc(F)cc34)CC2)c(-c2ccccc2)c1`, the microsomal CLint at 1 µM came out at 22.1 µL/min/mg in the data set “in vitro [5]” and 202 µL/min/mg in the data set “in vitro [6]”. Also, at hERG (KCNH2), the inhibition at 1 µM is 82.6%.

Regarding `CCOc1ccccc1N1CCN(CCCCCn2cnc3sc(C)c(C)c3c2=O)CC1`, the figures for the Ki in data set [1] and in data set [2] were 2.99 nM and 1.03 nM, respectively.

As for `Fc1ccc(C2CCN(CCCc3c[nH]c4ccc(F)cc34)CC2)c(-c2ccccc2)c1`, the results for the Ki in data set [1] and in data set [2] were 5.7 nM and 26.8 nM, respectively. Besides, the figures for the IC50 in data set [3] and in data set [4] were 160 nM and 251 nM, respectively. The intrinsic metabolic clearance (microsomal CLint) at 1 µM in the data set “in vitro [5]” was 27.8 µL/min/mg.

As for `CSc1ccccc1N1CCN(CCCc2c[nH]c3ccc(C#N)cc23)CC1`, the figures for the intrinsic clearance (microsomal CLint) at 1 µM in the data set “in vitro [5]” and in the data set “in vitro [6]” were 127 µL/min/mg and 208 µL/min/mg, respectively. This molecule showed an inhibition at 1 µM at hERG (KCNH2) of 97.6%.

Turning to `CCOc1ccccc1N1CCN(CCCc2c[nH]c3ccc(F)cc23)CC1`, the figures for the IC50 in data set [3] and in data set [4] were 160 nM and 0.85 nM, respectively.

Consider `COc1ccccc1N1CCN(CCCCCC(=O)NC2CCCc3ccccc32)CC1` (centres undefined), for which the results for the inhibitory constant (Ki) in data set [1] and in data set [2] were 6.64 nM and 8.6 nM, respectively.

`OC(CCN1CCC(c2ccc(F)cc2-c2ccccc2)CC1)c1c[nH]c2ccc(F)cc12` (centres undefined) yielded an IC50 in data set [3] of 530 nM.

For the molecule `CSc1ccccc1C1CCN(CCCc2c[nH]c3ccc(F)cc23)CC1`, the figures for the microsomal CLint at 1 µM in “in vitro [5]” and in the data set “in vitro [6]” were 24.5 µL/min/mg and 62.3 µL/min/mg, respectively. Moreover, at hERG (KCNH2), the inhibition at 1 µM worked out at 96.6%.

On to `CSc1ccccc1N1CCN(CCCCCc2c[nH]c3ccc(F)cc23)CC1`, for which the microsomal CLint at 1 µM in the data set “in vitro [5]” was 90.1 µL/min/mg; in the data set “in vitro [6]”, 83.2 µL/min/mg. The same molecule gave an inhibition at 1 µM against hERG (KCNH2) of 84.5%.

For the molecule `CSc1ccccc1N1CCN(CCCCc2c[nH]c3ccc(F)cc23)CC1`, the intrinsic metabolic clearance (microsomal CLint) at 1 µM in the data set “in vitro [5]” was 27.8 µL/min/mg; in the data set “in vitro [6]” it was 156 µL/min/mg. Moreover, the inhibition at 1 µM on hERG (KCNH2) came to 82.7%.
